Data taken from patent publication US8304202B2, “Interaction of BIM with TRIM2” (priority 2007, dated 2012).
pEC50: −log10 of the molar value. Entries after “also recorded” stand apart in the source; their conditions may differ. Read-outs that look alike come from different tables or passages of the source. Residues, ends and D or L forms follow the SMILES beside them. *: point of attachment. Cbz = O=C(OCc1ccccc1)*

What was measured:
[1] = test system: rat cortical neuronal cultures; assay: Rapid ischemic tolerance: cell death after harmful ischemia (OGD) with preconditioning ischemia, propidium iodide staining; format: cell-based; conditions: for rapid ischemic tolerance: neuronal cultures, preconditioning ischemia; for neuroprotective effect of preconditioning: 10 μM, one hour incubation following 30 minutes of preconditioning OGD, cell death 24 hours after 120 minutes of harmful ischemia
Procedure: (§1) Neurons were exposed to ischemic conditions, namely, oxygen and glucose deprivation (OGD), by washing the cells with phosphate-buffered saline (NaCl ([…]), KCl (2.7 mM), Na2HPO4 (10 mM), KH2PO4 (1.7 mM), pH 7.4) supplemented with 0.5 mM CaCl2, 1.0 mM MgCl2 and placing the cells (in culture dishes) in an anaerobic chamber (85% N2, 5% H2, 10% CO2; 35° C.) for 30 minutes (preconditioning ischemia) or 120 minutes (harmful ischemia).
Cell death was assessed 24 hours following 120 minutes of harmful ischemia using propidium iodide staining. Data shown are mean±S.E. (n=8). Data were analyzed by one-way ANOVA, with Bonferroni's post-hoc test. *, p<0.05.
Cells were incubated for one hour following 30 minutes of preconditioning OGD with either PD98059 or U0126 (both 10 μM), which are compounds that prevent p42/p44 MAPK activation by inhibiting an upstream regulatory MAPK kinase (MEK).

Bim protein = Bim protein levels by immunoblot following preconditioning ischemia; format: cell-based, rat; conditions: for Bim degradation: following preconditioning ischemia
Procedure: as §1
Bim protein levels were determined by immunoblotting, and then the blots were re-probed with α-tubulin to control for loading.
(§2) In the top and middle panels of the figure, phosphorylation of p42/p44 MAPK was determined by immunoblot, and the blots were re-probed for total p42/p44 MAPK expression. In the bottom panel of the figure, cells were subjected to preconditioning ischemia and then recovered in the presence of U0126. Bim expression was determined by immunoblot. Data shown are representative of three independent experiments.
The effect of U0126 on Bim protein levels also was investigated following 30 minutes of OGD.

Bim = conditions: following preconditioning ischemia
Excerpt: The experiments described in this example investigate the degradation of the pro-apoptotic Bcl-2 family member Bim as a mechanism of rapid ischemic tolerance.

p42/p44 MAPK = test system: p42/p44 MAPK
Procedure: as §2
As a control, the same blot was probed for non-phospho-p42/p44 MAPK.

[2] = test system: GST-Bim polypeptide with TRIM2 protein; conditions: cells incubated with inhibitor, preconditioning ischemia
Procedure: To follow up on this observation, co-immunoprecipitation was utilized to determine whether TRIM2 binding to Bim correlates with the degradation of Bim following preconditioning ischemia in neuronal cultures. GST-Bim was incubated with cell lysates from control neurons (“CONT”; open bars) and neurons exposed to preconditioning ischemia (“PC”; hatched bars). GST-Bim interacting with TRIM2 then was co-immunoprecipitated with anti-TRIM 2 antibody and detected by immunoblot with an anti-GST antibody.

HCC1419 cells = assay: Cell death as LDH release (absorbance at 492 nm) in HCC1419 cells; format: cell-based; conditions: for pEC50: Homo sapiens, LDH release
Procedure: (§3) The stabilization of Bim in cells by blocking Bim degradation may sensitize the cells to an additional anti-cancer agent and promote cell death. […] Cell death was measured as a release of the enzyme lactate dehydrogenase (LDH), which is detected as absorbance at 492 nm.
(§4) Cells were incubated with various concentrations of doxorubicin (μM) for 72 h, in the absence (solid squares) or presence (open circles) of 100 μM U0126.

MCF-7 cells = assay: Cell death as LDH release (absorbance at 492 nm) in MCF-7 cells; format: cell-based; conditions: 100 μM U0126
Procedure: as §3, §4

## CC(C)C[C@@H](C=O)NC(=O)[C@H](CC(C)C)NC(=O)[C@H](CC(C)C)NC(=O)OCc1ccccc1 [MG-132] (Cbz-Leu-Leu-Leu-aldehyde)
[1]
  rapid ischemic tolerance: blocked rapid ischemic tolerance
Bim protein
  Bim degradation: prevented Bim degradation

## COc1cccc(-c2cc(=O)c3ccccc3o2)c1N [PD98059, 2-(2-Amino-3-methoxyphenyl)-4H-1-benzopyran-4-one]
[1]
  neuroprotective effect of preconditioning: blocked

## N#CC(=C(/N)Sc1ccccc1N)/C(C#N)=C(\N)Sc1ccccc1N [U0126, 1,4-diamino-2,3-dicyano-1,4-bis(2-aminophenylthio)butadiene]
Bim
  Bim ubiquitination: reduced
[1]
  neuroprotective effect of preconditioning: blocked
  rapid ischemic tolerance: blocked rapid ischemic tolerance; also recorded: blocks
p42/p44 MAPK; control cells treated with U0126 alone
  phosphorylation of MAPK in control cells: no phosphorylation of MAPK
p42/p44 MAPK; following preconditioning ischemia or U0126 treatment
  total levels of p42/p44 MAPK: did not change
p42/p44 MAPK; one hour following preconditioning ischemia
  increase in p42/p44 MAPK phosphorylation following preconditioning ischemia: blocked
Bim protein; control-treated cells, no preconditioning
  Bim protein expression in control-treated cells: no effect
Bim protein
  Bim degradation: reduced; also recorded: blocks
Bim protein; recovery in the presence of U0126
  decrease in Bim protein expression at one hour following 30 minutes of preconditioning ischemia: blocked
[2]
  co-immunoprecipitation of GST-Bim polypeptide with TRIM2 protein: reduced
HCC1419 cells; HCC1419 cells (low Bim:TRIM2 ratio), 100 μM U0126
  enhancement of doxorubicin-induced cell death: enhancement
HCC1419 cells; HCC1419 cells, U0126 alone
  cell death (LDH release): does not induce cell death
MCF-7 cells; MCF-7 cells (high Bim:TRIM2 ratio)
  enhancement of doxorubicin-induced cell death: not observed

## COc1cccc2c1C(=O)c1c(O)c3c(c(O)c1C2=O)C[C@@](O)(C(=O)CO)C[C@@H]3O[C@H]1C[C@H](N)[C@H](O)[C@H](C)O1 [doxorubicin]
HCC1419 cells; HCC1419 cells, 72 h, 100 μM U0126
  shift in the response to doxorubicin when U0126 is present: leftward shift
HCC1419 cells; HCC1419 cells, 72 h, absence of U0126, read-out: calculated EC50 of doxorubicin alone
  pEC50: 4.22
HCC1419 cells; HCC1419 cells, 72 h, presence of 100 μM U0126, read-out: calculated EC50 of doxorubicin when combined with U0126
  pEC50: 8.00
MCF-7 cells; MCF-7 cells, 72 h
  responsiveness to combination of doxorubicin and U0126 relative to doxorubicin alone: no increased responsiveness
